This experiment deals with T1, 14-3-3γ (Homo sapiens, UniProt P61981).
T1 construct: made in house; host or cells: E. coli NiCo21 (DE3)
T1 sequence (P61981 1-247): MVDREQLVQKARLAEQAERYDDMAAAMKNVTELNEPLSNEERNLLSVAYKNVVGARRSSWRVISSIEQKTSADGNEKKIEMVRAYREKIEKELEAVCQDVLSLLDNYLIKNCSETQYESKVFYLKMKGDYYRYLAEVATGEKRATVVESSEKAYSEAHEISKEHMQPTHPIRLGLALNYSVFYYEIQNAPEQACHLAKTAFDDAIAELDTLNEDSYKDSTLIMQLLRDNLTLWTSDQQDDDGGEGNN
The experiment is described as follows: Isothermal titration calorimetry (ITC) of 14-3-3 binding to peptide. As to conditions: for ΔG / Kd / ΔH / -TΔS: 25 °C; for Kd: Table S6 (unit as in Table S5). How it is done: 14-3-3γ protein expression (FP/ITC experiments)
A pPROEX HTb expression vector encoding the human 14-3-3 protein gamma (14-3-3γ) with an N-terminal his6-tag was transformed by heat shock into NiCo21 (DE3) competent cells. Single colonies were cultured in 50 mL LB medium (100 µg/mL ampicillin). After overnight incubation at 37 °C, cultures were transferred to 2 L TB media (100 µg/mL ampicillin, 1 mM MgCl2) and incubated at 37 °C until an OD600 nm of 0.8-1.2 was reached. Protein expression was then induced with 0.4 mM isopropyl-β-d-thiogalactoside (IPTG), and cultures were incubated overnight at 18 °C. Cells were harvested by centrifugation (8600 rpm, 20 minutes, 4 °C) and resuspended in lysis buffer (50 mM Hepes, pH 8.0, 300 mM NaCl, 12.5 mM imidazole, 5 mM MgCl2, 2 mM βME) containing cOmplete™ EDTA-free Protease Inhibitor Cocktail tablets (1 tablet/100 ml lysate) and benzonase (1 µl/100 ml). After lysis using a C3 Emulsiflex-C3 homogenizer (Avestin), the cell lysate was cleared by centrifugation (20000 rpm, 30 minutes, 4 °C) and purified using Ni2+-affinity chromatography (Ni-NTA superflow cartridges, Qiagen).
Typically two 5 mL columns (flow 5 mL/min) were used for a 2 L culture in which the lysate was loaded on the column washed with 10 CV wash buffer (50 mM Hepes, pH 8.0, 300 mM NaCl, 25 mM imidazole, 2 mM βME) and eluted in several fractions (2-4 CV) of elution buffer (50 mM Hepes, pH 8.0, 300 mM NaCl, 250 mM imidazole, 2 mM βME). Fractions containing the 14-3-3 protein were combined and dialyzed into 25 mM HEPES pH 8.0, 100 mM NaCl, 10 mM MgCl2, 500 µM TCEP. […]
The peptides 1 and 2a-d were synthesized on 50 µmol scale on a Rink amide MBHA resin (Novabiochem, 0.52 mmol/g loading) using an automated Intavis MultiPep RSi peptide synthesizer.
Deprotection was performed twice per cycle with 20% v/v piperidine in DMF for 8 minutes. Fmoc-protected amino acids were mixed in 5 equivalents of HBTU and 9 equivalents of DIPEA in DMF, and coupled to the resin. With the exception of phosphoserine, which was coupled once for 60 minutes, all amino acids were coupled to the resin twice for 30 minutes. Capping of unreacted amino acids was performed with a mixture of acetic anhydride/pyridine/DMF (1:1:3) for 5 minutes. βAla was incorporated as a spacer between the sequence and Lys(Alloc), to which a FITC fluorophore will be coupled for fluorescence anisotropy studies.
The peptides 1 and 2e-i were synthesized manually on a 50 µmol scale using Rink amide MBHA resin (Novabiochem, 0.52 mmol/g loading) via Fmoc based solid phase peptide synthesis. […]
(lex: 485 ± 20 nm; lem: 535 ± 25 nm; mirror: Dichroic 510; flashes: 20; integration time: 50 ms; settle time:
0 ms; gain: optimal; and Z-position: calculated from well). […]
Data was obtained and averaged based on two
To determine the cooperativity parameters from the 2D-titration of 14-3-3/ChREBP/2d (as described above) we have used the general framework for straightforward model construction of multi-component thermodynamic equilibrium systems as described by Geertjens et al. (2021).10 This general platform generates a model to describe multi-component equilibrium systems when given a system description.
In our case we gave the following system description: […]
α (with 95% confidence interval) and the error-landscape of the determine parameters.
Fluorescence anisotropy (FA) – Selectivity study: Peptides representing 14-3-3 binding partners (including ChREBP) were titrated in a 2-fold dilution series (starting at 100 µM) to 20 nM of fluorescein-labeled peptide 2d in presence and absence of, respectively, 2 µM 14-3-3γ in FA buffer (10 mM HEPES pH 7.4, 150 mM NaCl, 0.1% (v/v) Tween20, 0.1% (w/v) BSA). Dilution series were made in a polystyrene (non-binding) low-volume Corning Black Round Bottom 384-well plates (Corning 4514 or 4511).
Measurements were performed directly after plate preparation, using a Tecan Infinite F500 plate reader at room temperature (lex: 485 ± 20 nm; lem: 535 ± 25 nm; mirror: Dichroic 510; flashes: 20; integration […]
(In general: Isothermal titration calorimetry measures the heat released or taken up as one component is titrated into another.)

Setting [1] is: Table S5, ITC Kd / Kd of peptide 1, first unlabelled line (replicate 1).
[2] abbreviates: Table S5, ITC Kd / Kd of peptide 1, second unlabelled line (replicate 2).
[3] abbreviates: Table S5, ITC Kd of peptide divided by Kd of peptide 1, mean of n = 2.
Setting [4] is: Table S5, ΔG minus ΔG of peptide 1, ITC, first unlabelled line (replicate 1).
Where [5] appears, read: Table S5, ΔG minus ΔG of peptide 1, ITC, second unlabelled line (replicate 2).
Where [6] appears, read: Table S5, ΔG of peptide minus ΔG of peptide 1, ITC, mean of n = 2.
Where [7] appears, read: ITC, average of two runs, read-out: Kd.
[8] abbreviates: Table S6 (unit given in Fig. 4 legend), ITC, average of two runs.
Setting [9] is: Table S6, ITC, average of two runs.

Where two headings read alike, the source gives them in different places. Where a SMILES comes first, the peptide text is derived from it. [ ]: non-standard residue; d: D form. ξ: configuration not given here. Phe(4-NO2) = N[C@@H](Cc1ccc([N+](=O)[O-])cc1)C(=O)O; ξAla(4-thiazolyl) = NC(Cc1cscn1)C(=O)O; pS = N[C@@H](COP(=O)(O)O)C(=O)O; β3hS = N[C@@H](CO)CC(=O)O; Nva = CCC[C@H](N)C(=O)O; βAla = NCCC(=O)O

As to `CCC[C@H](NC(=O)[C@H](N)CCCCN)C(=O)N[C@@H](Cc1ccc([N+](=O)[O-])cc1)C(=O)N[C@@H](C)C(=O)N[C@@H](COP(=O)(O)O)C(=O)N[C@@H](Cc1ccc([N+](=O)[O-])cc1)C(=O)N[C@@H](CO)CC(=O)NCCC(=O)N[C@@H](Cc1ccc([N+](=O)[O-])cc1)C(=O)N[C@@H](CCCCN)C(N)=O` [3a] (H-[dK][Nva][Phe(4-NO2)]A[pS][Phe(4-NO2)][β3hS][βAla][Phe(4-NO2)]K-NH2; N-terminus and C-terminus assumed), the “Fold change to 1” value under setting [1] amounted to 2.0, the “Fold change to 1” value under setting [2] came out at 1.5 and the “Fold change to 1” value under setting [3] is recorded as 1.8. Also, the ΔG is given as -9.7 kcal/mol (Table S5, ITC, mean of n = 2); -9.6 kcal/mol (Table S5, ITC, replicate 1); -9.8 kcal/mol (Table S5, ITC, replicate 2); -9,69 kcal mol^-1 under setting [9]; -9,622 kcal mol^-1 (Table S6, ITC, run 1); -9,764 kcal mol^-1 (Table S6, ITC, run 2). The “ΔΔG to 1” value was 0.4 kcal/mol under setting [4], 0.3 kcal/mol under setting [5] and 0.3 kcal/mol under setting [6]. The Kd (usually the constant that tells how readily two partners part at equilibrium) by setting is: under setting [7], 79.1 nM; (ITC, run 1) 8,86E-08 M; (ITC, run 2) 6,97E-08 M. Further, the ΔH is listed as -7,40 kcal mol^-1 under setting [8]; -7,998 kcal mol^-1 (Table S6, ITC, run 1); -6,809 kcal mol^-1 (Table S6, ITC, run 2). The “-TΔS” value is, setting by setting: under setting [9], -2,29 kcal mol^-1; (Table S6, ITC, run 1) -1,624 kcal mol^-1; (Table S6, ITC, run 2) -2,955 kcal mol^-1.

Turning to `CCC[C@H](NC(=O)[C@H](N)CCCCN)C(=O)N[C@@H](Cc1ccc([N+](=O)[O-])cc1)C(=O)NC(Cc1cscn1)C(=O)N[C@@H](COP(=O)(O)O)C(=O)N[C@@H](Cc1ccc(O)cc1)C(=O)N[C@@H](CO)CC(=O)NCCC(=O)N[C@@H](Cc1ccc([N+](=O)[O-])cc1)C(=O)N[C@@H](CCCCN)C(N)=O` (stereo partly drawn) [4a] (H-[dK][Nva][Phe(4-NO2)][ξAla(4-thiazolyl)][pS]Y[β3hS][βAla][Phe(4-NO2)]K-NH2; N-terminus and C-terminus assumed), the “Fold change to 1” value by setting is: under setting [1], 2.8; under setting [2], 1.3; under setting [3], 2.1. For the same compound, the ΔG (Table S5, ITC, mean of n = 2) is given as -9.6 kcal/mol; the ΔG (Table S5, ITC, replicate 1) is listed as -9.4 kcal/mol; the ΔG (Table S5, ITC, replicate 2) is reported as -9.8 kcal/mol; the ΔG under setting [9] was -9,63 kcal mol^-1; the ΔG (Table S6, ITC, run 1) is -9,411 kcal mol^-1; the ΔG (Table S6, ITC, run 2) was -9,844 kcal mol^-1. Moreover, the “ΔΔG to 1” value reads like this: under setting [4], 0.6 kcal/mol; under setting [5], 0.2 kcal/mol; under setting [6], 0.4 kcal/mol. The dissociation constant (Kd) under setting [7] was 93.6 nM; the Kd (ITC, run 1) is 1,26E-07 M; the Kd (ITC, run 2) is on record as 6,09E-08 M. For the same compound, the ΔH under setting [8] is given as -6,64 kcal mol^-1; the ΔH (Table S6, ITC, run 1) is reported as -5,83 kcal mol^-1; the ΔH (Table S6, ITC, run 2) was -7,45 kcal mol^-1. Moreover, the “-TΔS” value is -2,99 kcal mol^-1 under setting [9]; -3,582 kcal mol^-1 (Table S6, ITC, run 1); -2,393 kcal mol^-1 (Table S6, ITC, run 2).

In the case of `CCC[C@H](NC(=O)[C@H](N)CCCCN)C(=O)N[C@@H](Cc1ccc([N+](=O)[O-])cc1)C(=O)NC(Cc1cscn1)C(=O)N[C@@H](COP(=O)(O)O)C(=O)N[C@@H](Cc1ccccc1)C(=O)N[C@@H](CO)CC(=O)NCCC(=O)N[C@@H](Cc1ccc([N+](=O)[O-])cc1)C(=O)N[C@@H](CCCCN)C(N)=O` (stereo partly drawn) [4b] (H-[dK][Nva][Phe(4-NO2)][ξAla(4-thiazolyl)][pS]F[β3hS][βAla][Phe(4-NO2)]K-NH2; N-terminus and C-terminus assumed), the “Fold change to 1” value under setting [1] was 0.6, the “Fold change to 1” value under setting [2] is given as 0.8 and the “Fold change to 1” value under setting [3] was determined as 0.7. Besides, the ΔG (Table S5, ITC, mean of n = 2) was -10.2 kcal/mol; the ΔG (Table S5, ITC, replicate 1) is -10.3 kcal/mol; the ΔG (Table S5, ITC, replicate 2) is reported as -10.1 kcal/mol; the ΔG under setting [9] is -10,24 kcal mol^-1; the ΔG (Table S6, ITC, run 1) is reported as -10,34 kcal mol^-1; the ΔG (Table S6, ITC, run 2) was -10,13 kcal mol^-1. For the same compound, the “ΔΔG to 1” value runs as follows: under setting [4], -0.3 kcal/mol; under setting [5], -0.1 kcal/mol; under setting [6], -0.2 kcal/mol. The Kd is, setting by setting: under setting [7], 31.9 nM; (ITC, run 1) 2,62E-08 M; (ITC, run 2) 3,76E-08 M. Moreover, the ΔH reads like this: under setting [8], -7,40 kcal mol^-1; (Table S6, ITC, run 1) -8,024 kcal mol^-1; (Table S6, ITC, run 2) -6,783 kcal mol^-1. The “-TΔS” value is on record as -2,87 kcal mol^-1 under setting [9]; -2,391 kcal mol^-1 (Table S6, ITC, run 1); -3,345 kcal mol^-1 (Table S6, ITC, run 2).

Take `CCC[C@H](NC(=O)[C@H](N)CCCCN)C(=O)N[C@@H](Cc1ccc([N+](=O)[O-])cc1)C(=O)NC(Cc1cscn1)C(=O)N[C@@H](COP(=O)(O)O)C(=O)N[C@@H](C)C(=O)N[C@@H](CO)CC(=O)NCCC(=O)N[C@@H](Cc1ccc([N+](=O)[O-])cc1)C(=O)N[C@@H](CCCCN)C(N)=O` (stereo partly drawn) [4c] (H-[dK][Nva][Phe(4-NO2)][ξAla(4-thiazolyl)][pS]A[β3hS][βAla][Phe(4-NO2)]K-NH2; N-terminus and C-terminus assumed): under “ITC, relative to 1, mean ± SD, SD”, the “ΔΔG of point mutation (ITC)” value worked out at 1.7 ± 0.1 kcal/mol. The “Fold change to 1” value by setting is: under setting [1], 15.0; under setting [2], 18.9. Also, the ΔG (Table S5, ITC, mean of n = 2) is -8.3 kcal/mol; the ΔG (Table S5, ITC, replicate 1) was -8.4 kcal/mol; the ΔG (Table S5, ITC, replicate 2) was -8.3 kcal/mol; the ΔG under setting [9] is on record as -8,35 kcal mol^-1; the ΔG (Table S6, ITC, run 1) is -8,421 kcal mol^-1; the ΔG (Table S6, ITC, run 2) is recorded as -8,278 kcal mol^-1. Moreover, the “ΔΔG to 1” value by setting is: under setting [4], 1.6 kcal/mol; under setting [5], 1.7 kcal/mol; under setting [6], 1.7 kcal/mol. Also, the Kd was 764 nM under setting [7]; 6,72E-07 M (ITC, run 1); 8,56E-07 M (ITC, run 2). The ΔH was -4,81 kcal mol^-1 under setting [8]; -4,976 kcal mol^-1 (Table S6, ITC, run 1); -4,649 kcal mol^-1 (Table S6, ITC, run 2). Further, the “-TΔS” value runs as follows: under setting [9], -3,54 kcal mol^-1; (Table S6, ITC, run 1) -3,445 kcal mol^-1; (Table S6, ITC, run 2) -3,629 kcal mol^-1.
